Experimental findings from ChEMBL document CHEMBL5212743, “Selectivity Literature for EUbOPEN Chemogenomics Library wave 3” (2023) are described below.

pKi: −log10 of the molar value.

In test [1] the target is T1, Receptor-interacting serine/threonine-protein kinase 4 (Homo sapiens) (UniProt P57078).
T1 sequence (whole entry): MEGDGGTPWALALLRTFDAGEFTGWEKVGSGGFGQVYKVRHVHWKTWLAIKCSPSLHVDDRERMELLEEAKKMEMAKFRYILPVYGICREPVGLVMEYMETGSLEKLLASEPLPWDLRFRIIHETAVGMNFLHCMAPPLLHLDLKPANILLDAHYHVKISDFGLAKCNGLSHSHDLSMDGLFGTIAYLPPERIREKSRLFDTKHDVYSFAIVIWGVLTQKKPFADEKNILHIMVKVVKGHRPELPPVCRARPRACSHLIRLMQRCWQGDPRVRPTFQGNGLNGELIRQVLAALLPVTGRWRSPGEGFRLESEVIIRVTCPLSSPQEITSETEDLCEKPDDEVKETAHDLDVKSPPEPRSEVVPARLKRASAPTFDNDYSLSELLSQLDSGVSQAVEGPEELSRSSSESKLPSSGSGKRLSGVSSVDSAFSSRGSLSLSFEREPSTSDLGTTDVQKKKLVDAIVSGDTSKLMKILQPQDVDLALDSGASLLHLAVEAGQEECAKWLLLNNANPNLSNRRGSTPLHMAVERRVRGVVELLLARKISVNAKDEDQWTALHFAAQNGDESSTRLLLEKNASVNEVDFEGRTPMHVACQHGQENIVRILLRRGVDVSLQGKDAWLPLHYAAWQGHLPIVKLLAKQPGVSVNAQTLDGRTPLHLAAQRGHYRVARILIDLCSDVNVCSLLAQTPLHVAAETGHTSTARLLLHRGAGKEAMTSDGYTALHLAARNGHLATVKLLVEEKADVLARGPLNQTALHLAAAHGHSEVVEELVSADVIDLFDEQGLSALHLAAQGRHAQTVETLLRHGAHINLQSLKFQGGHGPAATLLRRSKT
In words: Selectivity interaction (KinomeScan (DiscoverX)) EUB0000702a RIPK4. Conditions: at 1 µM.

For test [2], the target named is T2, Gamma-aminobutyric acid receptor subunit alpha-1 (Homo sapiens, UniProt P14867).
T2 sequence (P14867 whole entry): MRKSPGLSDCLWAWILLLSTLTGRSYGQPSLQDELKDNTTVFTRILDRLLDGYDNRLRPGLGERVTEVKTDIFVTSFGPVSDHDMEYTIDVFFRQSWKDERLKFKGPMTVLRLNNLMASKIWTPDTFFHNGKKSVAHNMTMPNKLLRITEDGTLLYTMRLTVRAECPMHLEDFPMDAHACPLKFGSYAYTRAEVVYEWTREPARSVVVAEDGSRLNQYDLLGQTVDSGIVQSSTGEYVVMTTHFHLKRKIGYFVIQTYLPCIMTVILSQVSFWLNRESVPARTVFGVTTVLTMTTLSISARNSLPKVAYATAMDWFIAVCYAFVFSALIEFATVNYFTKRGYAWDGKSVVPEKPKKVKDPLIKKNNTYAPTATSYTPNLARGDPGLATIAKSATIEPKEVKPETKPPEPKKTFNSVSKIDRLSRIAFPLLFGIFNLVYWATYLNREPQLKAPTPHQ
In words: Selectivity interaction (GPCR panel (PDSP screen)) EUB0000702a GABRA1.

Test [3] relates to Receptor-type tyrosine-protein kinase FLT3 (Homo sapiens), P36888 [UNDEFINED MUTATION]. As to the kind of experiment: Selectivity interaction (KinomeScan (DiscoverX)) EUB0000702a FLT3. Conditions: at 1 µM.
For test [4], the system named is T3, Receptor-type tyrosine-protein kinase FLT3 (Homo sapiens), P36888 [D835V].
T3 sequence (whole entry): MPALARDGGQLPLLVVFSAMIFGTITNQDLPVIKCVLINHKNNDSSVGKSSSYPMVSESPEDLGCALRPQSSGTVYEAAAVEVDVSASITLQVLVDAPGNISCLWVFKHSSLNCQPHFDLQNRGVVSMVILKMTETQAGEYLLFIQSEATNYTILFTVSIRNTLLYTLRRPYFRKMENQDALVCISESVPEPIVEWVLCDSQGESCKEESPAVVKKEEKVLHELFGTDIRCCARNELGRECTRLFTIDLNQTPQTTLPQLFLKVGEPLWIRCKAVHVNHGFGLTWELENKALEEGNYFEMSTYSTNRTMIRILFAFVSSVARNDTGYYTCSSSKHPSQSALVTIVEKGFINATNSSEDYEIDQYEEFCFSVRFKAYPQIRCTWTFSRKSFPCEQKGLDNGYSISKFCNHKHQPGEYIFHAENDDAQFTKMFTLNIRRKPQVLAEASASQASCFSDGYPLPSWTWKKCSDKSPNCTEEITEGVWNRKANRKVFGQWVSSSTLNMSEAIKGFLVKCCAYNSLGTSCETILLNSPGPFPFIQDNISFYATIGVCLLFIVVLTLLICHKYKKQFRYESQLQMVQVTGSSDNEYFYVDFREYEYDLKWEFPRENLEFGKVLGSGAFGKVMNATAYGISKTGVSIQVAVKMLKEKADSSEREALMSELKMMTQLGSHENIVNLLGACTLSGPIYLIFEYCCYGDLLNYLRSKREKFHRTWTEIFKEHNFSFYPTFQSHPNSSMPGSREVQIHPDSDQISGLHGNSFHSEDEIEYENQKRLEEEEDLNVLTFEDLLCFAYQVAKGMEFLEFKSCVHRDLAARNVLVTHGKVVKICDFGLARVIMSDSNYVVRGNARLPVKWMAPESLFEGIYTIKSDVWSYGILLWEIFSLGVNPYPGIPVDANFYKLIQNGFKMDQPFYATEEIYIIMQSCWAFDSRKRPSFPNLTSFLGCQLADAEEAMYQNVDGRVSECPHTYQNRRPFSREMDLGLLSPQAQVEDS
In words: Selectivity interaction (KinomeScan (DiscoverX)) EUB0000305b FLT3. The settings on record: at 100 nM.

The target in test [5] is T4, Dual specificity mitogen-activated protein kinase kinase 5 (Homo sapiens) (UniProt Q13163).
T4 sequence (whole entry): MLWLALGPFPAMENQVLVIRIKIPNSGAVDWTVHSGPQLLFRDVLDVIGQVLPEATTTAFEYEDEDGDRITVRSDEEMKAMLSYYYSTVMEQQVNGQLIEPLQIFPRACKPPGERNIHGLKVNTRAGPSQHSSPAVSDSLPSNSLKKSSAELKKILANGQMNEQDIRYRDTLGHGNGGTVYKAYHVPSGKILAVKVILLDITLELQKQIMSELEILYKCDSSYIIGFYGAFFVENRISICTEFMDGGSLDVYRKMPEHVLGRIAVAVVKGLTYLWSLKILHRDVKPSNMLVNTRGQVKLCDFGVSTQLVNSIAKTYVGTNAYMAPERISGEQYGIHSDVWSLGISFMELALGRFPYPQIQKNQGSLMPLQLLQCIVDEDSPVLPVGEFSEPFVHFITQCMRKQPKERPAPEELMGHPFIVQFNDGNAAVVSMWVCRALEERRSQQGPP
In words: Selectivity interaction (KinomeScan (DiscoverX)) EUB0000698a MAP2K5. The settings on record: at 10 µM.

The target in test [6] is Mitogen-activated protein kinase 8 (Homo sapiens, UniProt P45983). Conditions: at 10 µM.
Test [7] concerns the target Protein kinase C alpha type (Homo sapiens) (UniProt P17252). In words: Selectivity interaction (Kinase panel (University of Dundee)) EUB0000169b PRKCA. The settings on record: at 10 µM.

Mitogen-activated protein kinase 8, sequence (P45983 whole entry): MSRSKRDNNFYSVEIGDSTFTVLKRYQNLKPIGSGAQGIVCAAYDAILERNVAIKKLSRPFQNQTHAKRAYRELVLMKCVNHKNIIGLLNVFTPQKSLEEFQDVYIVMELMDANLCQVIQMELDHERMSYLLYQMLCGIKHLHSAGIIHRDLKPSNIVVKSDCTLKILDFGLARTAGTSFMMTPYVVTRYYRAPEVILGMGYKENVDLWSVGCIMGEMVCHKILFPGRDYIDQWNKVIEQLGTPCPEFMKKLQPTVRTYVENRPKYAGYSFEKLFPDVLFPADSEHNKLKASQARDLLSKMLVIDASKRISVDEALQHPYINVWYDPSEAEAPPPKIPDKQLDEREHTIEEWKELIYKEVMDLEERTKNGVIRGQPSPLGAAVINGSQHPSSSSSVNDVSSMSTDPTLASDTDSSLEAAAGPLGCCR

As to `CN(c1ccnc(CNc2nc(Nc3ccc4c(c3)CC(=O)N4)ncc2C(F)(F)F)n1)S(C)(=O)=O` [PF-00911705], the results for the % of control in test [1] and in test [3] were 6% and 0%, respectively. The same molecule gave a negative-log Ki (pKi) in test [2] of 5.83.
As to `C[C@H](c1ccnc(Nc2nc3ccc(-c4cc(N(C)C)ncn4)cc3[nH]2)c1)N1CCN(C(=O)CC(F)(F)F)CC1` [BAY-985], the % of control in test [4] amounted to 32%.
As for `COc1cc2ncn(-c3cc(OCc4ccccc4C(F)(F)F)c(C(N)=O)s3)c2cc1OC` [GW843682X], the % of control in test [5] worked out at 0.5%.
As for `CC[C@@H]1C(=O)N(C)c2cnc(Nc3ccc(C(=O)NC4CCN(C)CC4)cc3OC)nc2N1C1CCCC1`, the % of control is 92% in test [6] and 103% in test [7].
